Test results taken from ChEMBL document CHEMBL1138810, “Studies of targeting and intracellular trafficking of an anti-androgen doxorubicin-formaldehyde conjugate in PC-3 prostate cancer cells bearing androgen receptor-GFP chimera” (J Med Chem, 2004).

Target: T1, Androgen receptor (Homo sapiens, UniProt P10275)
T1 sequence (P10275 whole entry): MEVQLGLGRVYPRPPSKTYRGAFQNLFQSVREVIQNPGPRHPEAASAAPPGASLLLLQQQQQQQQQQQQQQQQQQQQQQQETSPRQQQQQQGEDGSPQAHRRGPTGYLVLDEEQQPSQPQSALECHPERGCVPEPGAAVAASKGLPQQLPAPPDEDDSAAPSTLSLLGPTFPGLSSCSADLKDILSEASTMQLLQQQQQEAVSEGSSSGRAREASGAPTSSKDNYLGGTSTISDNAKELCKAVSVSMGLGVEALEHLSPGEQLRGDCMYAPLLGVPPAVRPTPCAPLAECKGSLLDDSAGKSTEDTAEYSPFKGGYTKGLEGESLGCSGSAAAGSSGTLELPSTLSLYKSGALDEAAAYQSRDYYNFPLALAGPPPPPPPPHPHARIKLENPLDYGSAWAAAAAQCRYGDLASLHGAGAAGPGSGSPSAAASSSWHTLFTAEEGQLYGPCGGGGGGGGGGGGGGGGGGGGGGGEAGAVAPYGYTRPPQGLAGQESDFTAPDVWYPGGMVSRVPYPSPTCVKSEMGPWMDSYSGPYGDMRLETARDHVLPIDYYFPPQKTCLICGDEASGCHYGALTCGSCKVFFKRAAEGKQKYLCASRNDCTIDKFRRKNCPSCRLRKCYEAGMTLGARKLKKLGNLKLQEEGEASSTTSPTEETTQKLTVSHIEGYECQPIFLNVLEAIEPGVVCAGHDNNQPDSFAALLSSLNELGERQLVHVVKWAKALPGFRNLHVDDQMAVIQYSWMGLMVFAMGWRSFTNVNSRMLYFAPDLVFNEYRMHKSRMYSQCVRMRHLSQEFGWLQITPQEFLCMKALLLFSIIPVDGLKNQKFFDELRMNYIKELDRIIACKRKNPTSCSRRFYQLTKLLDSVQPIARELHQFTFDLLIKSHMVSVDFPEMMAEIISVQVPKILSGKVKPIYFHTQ
Experiment: Inhibition of [3H]mibolerone binding to human Androgen receptor of PC3/AR Cell Lysate

Compound	IC50
CC1(C)C(=O)N(c2ccc(C#N)c(C(F)(F)F)c2)C(=O)N1OCCOCCOCCCc1ccc(O)c(C(N)=O)c1	332 nM
CCCC(=O)Oc1ccc(COCC#CCN2C(=O)N(c3ccc(C#N)c(C(F)(F)F)c3)C(=O)C2(C)C)cc1C(=O)NCN[C@H]1CC(OC2C[C@](O)(C(=O)CO)Cc3c(O)c4c(c(O)c32)C(=O)c2c(OC)cccc2C4=O)O[C@@H](C)[C@H]1O (some centres undefined)	63 nM
COc1cccc2c1C(=O)c1c(O)c3c(c(O)c1C2=O)C[C@@](O)(C(=O)CO)CC3OC1C[C@H](NCNC(=O)c2cc(COCC#CCN3C(=O)N(c4ccc(C#N)c(C(F)(F)F)c4)C(=O)C3(C)C)ccc2O)[C@H](O)[C@H](C)O1 (some centres undefined)	90 nM
CC1(C)C(=O)N(c2ccc(C#N)c(C(F)(F)F)c2)C(=O)N1OCC#CCCc1ccc(O)c(C(N)=O)c1	49 nM
